Literature values in patent US10391093B2, “Therapeutic compounds” (Arizona Board of Regents, A Body Corporate of the State of …, priority 2011, dated 2019).

Assays:
hRXRβ = hRXRβ (Homo sapiens, UniProt P28702); conditions: read-out: EC50 for the hRXRβ isoform
hRXR [1] = conditions: Caco-2 cells
hRXR [2] = conditions: Caco-2 cells; remark: listed apart in the source

Chain of hRXRβ (P28702 whole entry, canonical isoform): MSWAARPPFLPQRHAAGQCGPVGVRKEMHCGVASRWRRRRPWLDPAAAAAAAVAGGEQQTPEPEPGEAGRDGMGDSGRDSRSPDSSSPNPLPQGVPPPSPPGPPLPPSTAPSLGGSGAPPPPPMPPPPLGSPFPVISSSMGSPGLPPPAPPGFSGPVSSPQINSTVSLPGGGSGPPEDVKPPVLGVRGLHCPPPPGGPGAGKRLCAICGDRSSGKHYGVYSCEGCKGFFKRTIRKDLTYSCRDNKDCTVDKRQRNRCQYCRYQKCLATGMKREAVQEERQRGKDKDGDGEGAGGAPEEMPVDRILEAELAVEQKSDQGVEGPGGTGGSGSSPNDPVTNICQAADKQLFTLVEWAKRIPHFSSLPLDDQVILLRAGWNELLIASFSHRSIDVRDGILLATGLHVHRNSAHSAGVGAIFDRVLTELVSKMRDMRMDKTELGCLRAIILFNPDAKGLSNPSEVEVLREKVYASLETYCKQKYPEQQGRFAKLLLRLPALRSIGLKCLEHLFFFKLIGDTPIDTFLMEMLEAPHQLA

SMILES	EC50 (hRXRβ)	EC50 (hRXR [1])	Kd (hRXR [2])
Cc1cc2c(cc1-c1cc(/C=C/C(=O)O)ccc1O)C(C)(C)CCC2(C)C [CD3254]	~10 nM		
C=C(c1ccc(C(=O)O)c(F)c1)c1cc2c(cc1C)C(C)(C)CCC2(C)C [Compound 3]		43 nM	12 nM
